How the values were obtained:
[1] = test system: MOLM-13 cells; test: Cell proliferation assay (alamarBlue), MOLM-13; assay type: cell-based; settings: Homo sapiens, MOLM-13; acute myeloid leukaemia cell line, 96 h incubation
Experimental: In accordance with the invention, the ability of the substances to inhibit cell proliferation was determined. Cell viability was determined by means of the alamarBlue® reagent (Invitrogen) in a Victor X3 Multilabel Reader (Perkin Elmer). The excitation wavelength was 530 nm and the emission wavelength […].
The MOLM-13 cells (DSMZ, ACC 554) were sown at a concentration of 4000 cells/well in 100 μl of growth medium (RPMI1640, 10% FCS) on 96-well microtitre plates.
The MDA-MB-231 cells (DSMZ, ACC 732) were sown at a concentration of 4000 cells/well in 100 μl of growth medium (DMEM/Ham's F12 medium, 10% FCS) on 96-well microtitre plates. After overnight incubation at 37° C., the fluorescence values (CI values) were determined. Then the plates were treated with various substance dilutions (1E-5 M, 3E-6 M, 1E-6 M, 3E-7 M, 1E-7 M, 3E-8 M, 1E-8 M) and incubated at 37° C. for 72 (MV4-11, LOX-IMVI cells), 96 (MOLM-13, B16F10, […] cells), 120 (MOLP-8, KMS-12-PE cells) or 168 (LAPC-4 cells) hours. Subsequently, the fluorescence values were determined (CO values). For the data analysis, the CI values were subtracted from the CO values and the results were compared between cells which had been treated with various dilutions of the substance or only with buffer solution. This was used to calculate the IC50 values (substance concentration required for 50% inhibition of cell proliferation).
The substances were examined in the cell lines of Table 1 which, in an exemplary manner, represent the stated indications: […]

[2] = target: T1, BRD4 (BD1) (Homo sapiens, UniProt O60885); test: Binding assay BRD4/acetylated peptide H4 (TR-FRET protein-protein interaction assay); settings: BRD4 (BD1) / acetylated histone H4 peptide
T1 construct: longer constructs also being possible, preferably amino acids 44-168; made in house; host or cells: E. coli
From the text: To assess the BRD4 binding strength of the substances described in this application, the ability thereof to inhibit the interaction between BRD4 (BD1) and acetylated histone H4 in a dose-dependent manner was quantified.
For this purpose, a time-resolved fluorescence resonance energy transfer (TR-FRET) assay was used, which measures the binding between N-terminally His6-tagged BRD4 (BD1) (amino acids 67-152, longer constructs also being possible, preferably amino acids 44-168) and a synthetic acetylated histone H4 (Ac—H4) peptide with sequence GRGK(Ac)GGK(Ac)GLGK(Ac)GGAK(Ac)RHGSGSK-biotin. The recombinant BRD4 protein produced in-house according to Filippakopoulos et al., Nature, 2010, 468:1119-1123 was expressed in E. coli and purified by means of (Ni-NTA) affinity and (Sephadex G-75) size exclusion chromatography. The Ac—H4 peptide can be purchased, for example, from Biosyntan (Berlin, Germany).
In the assay, typically 11 different concentrations of each substance (0.1 nM, 0.33 nM, 1.1 nM, 3.8 nM, 13 nM, 44 nM, 0.15 μM, 0.51 μM, 1.7 μM, 5.9 μM and 20 μM) were analysed as duplicates on the same microtitre plate. For this purpose, 100-fold concentrated solutions in DMSO were prepared by serial dilutions (1:3.4) of a 2 mM stock solution into a clear, 384-well microtitre plate (Greiner Bio-One, Frickenhausen, Germany). From this, 50 nl were transferred into a black test plate (Greiner Bio-One, Frickenhausen, Germany). The test was started by the addition of 2 μl of a 2.5-fold concentrated BRD4 solution (final concentration typically 10 nM in the 5 μl of reaction volume) in aqueous assay buffer [50 mM HEPES pH 7.5, 50 mM sodium chloride (NaCl), 0.25 mM CHAPS and 0.05% serum albumin (BSA)] to the substances in the test plate. This was followed by a 10-minute incubation step at 22° C. for the pre-equilibration of putative complexes between BRD4 and the substances.
The mixture was then incubated in the dark at 22° C. for one hour and then at 4° C. for at least 3 hours and for no longer than overnight. The formation of BRD4/Ac—H4 complexes was determined by the measurement of the resonance energy transfer from the streptavidin-Eu cryptate to the anti-6His-XL665 antibody present in the reaction. For this purpose, the fluorescence emission was measured at 620 nm and 665 nm after excitation at 330-350 nm in a TR-FRET measuring instrument, for example a Rubystar or Pherastar (both from BMG Lab Technologies, Offenburg, Germany) or a Viewlux (Perkin-Elmer). The ratio of the emissions at 665 nm and at […] was taken as an indicator of the amount of BRD4/Ac—H4 complexes formed.
The data (ratios) obtained were normalized, with 0% inhibition corresponding to the mean from the measurements for a set of controls (typically 32 data points) in which all the reagents were present. In these, in place of test substances, 50 nl of DMSO (100%) were used. Inhibition of 100% corresponded to the mean from the measurements for a set of controls (typically 32 data points) in which all the reagents except BRD4 were present. The IC50 was determined by regression analysis based on a 4-parameter equation (minimum, maximum, IC50, Hill; Y=max+(min−max)/(1+(X/IC50)^Hill)).

| SMILES | IC50 [1] [nM] | IC50 [2] [nM] |
| --- | --- | --- |
| CNC(=O)N1N=C(c2ccc(N3CC4(CCS4(=O)=O)C3)cc2)c2cc(OC)c(OC)cc2CC1C (racemic) [Example 3, 1-[4-(1,1-dioxido-1-thia-6-azaspiro[3.3]hept-6-yl)phenyl]-7,8-dimethoxy-N,4-dimethyl-4,5-dihydro-3H-2,3-benzodiazepine-3-carboxamide] | 150 | 20 |
| CNC(=O)N1N=C(c2ccc(N3C[C@H]4CC[C@@H](C3)O4)cc2)c2cc(OC)c(OC)cc2CC1C (mixture of isomers) [Example 4, (±)-7,8-dimethoxy-N,4-dimethyl-1-[4-(8-oxa-3-azabicyclo[3.2.1]oct-3-yl)phenyl]-4,5-dihydro-3H-2,3-benzodiazepine-3-carboxamide] | 100 | 30 |
| CNC(=O)N1N=C(c2ccc(N3CC4(COC4)C3)cc2)c2cc(OC)c(OC)cc2CC1C (racemic) [Example 5, (±)-7,8-dimethoxy-N,4-dimethyl-1-[4-(2-oxa-6-azaspiro[3.3]hept-6-yl)phenyl]-4,5-dihydro-3H-2,3-benzodiazepine-3-carboxamide] | 210 | 20 |
| CNC(=O)N1N=C(c2ccc(N3[C@@H]4CC[C@H]3CC(=O)C4)cc2)c2cc(OC)c(OC)cc2CC1C (mixture of isomers) [Example 6, (±)-7,8-dimethoxy-N,4-dimethyl-1-[4-(3-oxo-8-azabicyclo[3.2.1]oct-8-yl)phenyl]-4,5-dihydro-3H-2,3-benzodiazepine-3-carboxamide] | 180 | 30 |
| CNC(=O)N1N=C(c2cccc(N3CC4CCC(C3)O4)c2)c2cc(OC)c(OC)cc2CC1C (racemic) [Example 13, (±)-7,8-dimethoxy-N,4-dimethyl-1-[3-(8-oxa-3-azabicyclo[3.2.1]oct-3-yl)phenyl]-4,5-dihydro-3H-2,3-benzodiazepine-3-carboxamide] | 560 | 90 |
| CNC(=O)N1N=C(c2ccc(-c3ccc4c(c3)OCCO4)cc2)c2cc(OC)c(OC)cc2CC1C (racemic) [Example 21, (±)-1-[4-(2,3-dihydro-1,4-benzodioxin-6-yl)phenyl]-7,8-dimethoxy-N,4-dimethyl-4,5-dihydro-3H-2,3-benzodiazepine-3-carboxamide] | 710 | 90 |
| CNC(=O)N1N=C(c2ccc(-c3ccc4c(c3)CCO4)cc2)c2cc(OC)c(OC)cc2CC1C (racemic) [Example 22, (±)-1-[4-(2,3-dihydro-1-benzofuran-5-yl)phenyl]-7,8-dimethoxy-N,4-dimethyl-4,5-dihydro-3H-2,3-benzodiazepine-3-carboxamide] | 550 | 50 |
| CNC(=O)N1N=C(c2ccc(-c3cccc4ncccc34)cc2)c2cc(OC)c(OC)cc2CC1C (racemic) [Example 23, (±)-1-[4-(quinolin-5-yl)phenyl]-7,8-dimethoxy-N,4-dimethyl-4,5-dihydro-3H-2,3-benzodiazepine-3-carboxamide] | 250 | 60 |
| CNC(=O)N1N=C(c2ccc(-c3ccnc4ccccc34)cc2)c2cc(OC)c(OC)cc2CC1C (racemic) [Example 24, (±)-1-[4-(quinolin-4-yl)phenyl]-7,8-dimethoxy-N,4-dimethyl-4,5-dihydro-3H-2,3-benzodiazepine-3-carboxamide] | 390 | 70 |
| CNC(=O)N1N=C(c2ccc(-c3ccc4c(ccn4C)c3)cc2)c2cc(OC)c(OC)cc2CC1C (racemic) [Example 25, (±)-7,8-dimethoxy-N,4-dimethyl-1-[4-(1-methyl-1H-indol-5-yl)phenyl]-4,5-dihydro-3H-2,3-benzodiazepine-3-carboxamide] | 530 | 50 |
| CNC(=O)N1N=C(c2ccc(-c3cncc4ccccc34)cc2)c2cc(OC)c(OC)cc2CC1C (racemic) [Example 26, (±)-1-[4-(isoquinolin-4-yl)phenyl]-7,8-dimethoxy-N,4-dimethyl-4,5-dihydro-3H-2,3-benzodiazepine-3-carboxamide] | 550 | 60 |
| CNC(=O)N1N=C(c2ccc(N3C(=O)C4CCC3C4)cc2)c2cc(OC)c(OC)cc2CC1C (stereo not drawn) [Example 1, [1S-(1R*,4S*)]-7,8-Dimethoxy-N,4-dimethyl-1-[4-(3-oxo-2-azabicyclo[2.2.1]hept-2-yl)phenyl]-4,5-dihydro-3H-2,3-benzodiazepine-3-carboxamide] | 140 | 30 |
| CNC(=O)N1N=C(c2ccc(N3CC4(COC4)C3)cc2)c2cc(OC)c(OC)cc2C[C@H]1C [Example 5.2, (4R)-7,8-dimethoxy-N,4-dimethyl-1-[4-(2-oxa-6-azaspiro[3.3]hept-6-yl)phenyl]-4,5-dihydro-3H-2,3-benzodiazepine-3-carboxamide] |  | 1360 |
| CNC(=O)N1N=C(c2ccc(N3CC4(CN(C(=O)OC(C)(C)C)C4)C3)cc2)c2cc(OC)c(OC)cc2C[C@H]1C [Example 8.2, tert-butyl 6-{4-[(4R)-7,8-dimethoxy-4-methyl-3-(melhylcarbamoyl)-4,5-dihydro-3H-2,3-benzodiazepine-1-yl]phenyl}-2,6-diazaspiro[3.3]heptane-2-carboxylate] |  | 2050 |
| CNC(=O)N1N=C(c2ccc(N3CCC4(CCCC4)CC3)cc2)c2cc(OC)c(OC)cc2C[C@@H]1C [Example 9.1, (4S)-1-[4-(8-azaspiro[4.5]dec-8-yl)phenyl]-7,8-dimethoxy-N,4-dimethyl-4,5-dihydro-3H-2,3-benzodiazepine-3-carboxamide] |  | 200 |
| CNC(=O)N1N=C(c2ccc(N3CCC4(CCCC4)CC3)cc2)c2cc(OC)c(OC)cc2C[C@H]1C [Example 9.2, (4R)-1-[4-(8-azaspiro[4.5]dec-8-yl)phenyl]-7,8-dimethoxy-N,4-dimethyl-4,5-dihydro-3H-2,3-benzodiazepine-3-carboxamide] |  | > 20000 |
| CNC(=O)N1N=C(c2ccc(N3CC4(CCS4(=O)=O)C3)cc2)c2cc(OC(F)(F)F)ccc2C[C@H]1C [Example 18.1, (4R)-1-[4-(1,1-dioxido-1-thia-6-azaspiro[3.3]hept-6-yl)phenyl]-N,4-dimethyl-8-(trifluoromethoxy)-4,5-dihydro-3H-2,3-benzodiazepine-3-carboxamide] |  | 11500 |
| CNC(=O)N1N=C(c2ccc(N3C[C@@H]4C[C@H]3CO4)cc2)c2cc(OC)c(OC)cc2C[C@@H]1C [Example 35, (4S)-7,8-dimethoxy-N,4-dimethyl-1-{4-[(1S,4S)-2-oxa-5-azabicyclo[2.2.1]hept-5-yl]phenyl}-4,5-dihydro-3H-2,3-benzodiazepine-3-carboxamide] |  | 4110 |

Source: patent publication US20160129011A1, “BICYCLO 2,3-BENZODIAZEPINES AND SPIROCYCLICALLY SUBSTITUTED 2,3-BENZODIAZEPINES” (BAYER PHARMA AKTIENGESELLSCHAFT, priority 2013, published 2016)
